Data reported in patent US20260226068A1, “IMIDAZOTRIAZINE IL-17A MODULATORS AND USES THEREOF” (DICE ALPHA, INC., priority 2023, published 2026).

Columns and labels:
IL-17A/F = molecular target: T1, IL-17A/F (Homo sapiens, UniProt Q16552+Q96PD4); assay: IL-17A/F HEK-Blue cell assay (SEAP reporter); format: cell-based; settings: HEK-Blue IL-17A reporter cells, IL17A/F 5 ng/mL, 20 hours, SEAP read at A630; read-out: HEK-Blue IL17AF (IC50 for IL-17A/F inhibition)
T1 construct: purchased R&D Systems
T1 sequence (Q16552 24-155): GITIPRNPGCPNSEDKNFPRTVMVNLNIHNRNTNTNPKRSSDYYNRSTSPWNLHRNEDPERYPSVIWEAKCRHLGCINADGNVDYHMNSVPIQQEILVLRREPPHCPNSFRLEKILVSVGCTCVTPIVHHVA
T1 sequence (Q96PD4 31-163): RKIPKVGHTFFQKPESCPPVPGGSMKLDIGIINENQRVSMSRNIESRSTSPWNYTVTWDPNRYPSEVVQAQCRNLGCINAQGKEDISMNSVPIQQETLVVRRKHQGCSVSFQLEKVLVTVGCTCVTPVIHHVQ

IL-17A/A = molecular target: T2, IL-17A/A (Homo sapiens, UniProt Q16552); assay: IL-17A/A HEK-Blue cell assay (SEAP reporter); format: cell-based; settings: HEK-Blue IL-17A reporter cells, IL17A/A 5 ng/mL, 20 hours, SEAP read at A630; read-out: HEK-Blue IL17AA (IC50 for IL-17A/A inhibition)
T2 construct: purchased Genscript Z03228
T2 sequence (Q16552 24-155): T1 sequence (Q16552 24-155)

SMILES	IC50 (IL-17A/F) [nM]	IC50 (IL-17A/A) [nM]
CCn1nccc1C(=O)N[C@H](c1cn2nc(CC3C[C@@H](C(F)(F)F)CNC3=O)c(N3CCO[C@H](C)C3)nc2n1)[C@@H]1CCCC(F)(F)C1 (single isomer, unassigned) [Compound 124]	100 to 1000	< 100
O=C(N[C@H](c1cn2nc(C[C@H]3C[C@@H](C(F)(F)F)CNC3=O)c(C3CCCOC3)nc2n1)[C@H]1CCCC(F)(F)C1)c1nonc1C1CC1 (single isomer, unassigned) [Compound 125]	> 1000	< 100
O=C(N[C@H](c1cn2nc(C[C@H]3C[C@@H](C(F)(F)F)CNC3=O)c(C3CCCOC3)nc2n1)[C@H]1CCCC(F)(F)C1)c1nonc1C1CC1 (single isomer, unassigned) [Compound 126]	100 to 1000	< 100
CC(C)n1nccc1C(=O)N[C@H](c1cn2nc(CC3C[C@@H](C(F)(F)F)CNC3=O)c(N3CC4CC(C3)O4)nc2n1)[C@H]1CCCC(F)(F)C1 (single isomer, unassigned) [Compound 128]	100 to 1000	< 100
CC(C)n1nccc1C(=O)N[C@H](c1cn2nc(CC3C[C@@H](C(F)(F)F)CNC3=O)c(N3CC4CC(C3)O4)nc2n1)[C@@H]1CCCC(F)(F)C1 (single isomer, unassigned) [Compound 129]	100 to 1000	< 100
CC(C)n1nccc1C(=O)N[C@H](c1cn2nc(CC3C[C@@H](C(F)(F)F)CNC3=O)c(N3CC4CC(C3)O4)nc2n1)[C@H]1CCCC(F)(F)C1 (single isomer, unassigned) [Compound 130]	> 1000	< 100
CC(C)n1nccc1C(=O)N[C@H](c1cn2nc(CC3C[C@@H](C(F)(F)F)CNC3=O)c(N3CC4CC(C3)O4)nc2n1)[C@@H]1CCCC(F)(F)C1 (single isomer, unassigned) [Compound 131]	> 1000	< 100
CC(C)n1nccc1C(=O)N[C@H](c1cn2nc(C[C@H]3C[C@@H](C(F)(F)F)CNC3=O)c(C3CCOC3)nc2n1)C1CCC(F)(F)CC1 (single isomer, unassigned) [Compound 132]	100 to 1000	< 100

The remaining lines, values ahead:

IC50 (IL-17A/F) [nM]	IC50 (IL-17A/A) [nM]	SMILES
100 to 1000	< 100	CC(C)n1nccc1C(=O)N[C@H](c1cn2nc(C[C@H]3C[C@@H](C(F)(F)F)CNC3=O)c(C3CCOC3)nc2n1)C1CCC(F)(F)CC1 (single isomer, unassigned) [Compound 133]
> 1000	< 100	O=C(N[C@H](c1cn2nc(C[C@H]3C[C@@H](C(F)(F)F)CNC3=O)c(C3CCOC3)nc2n1)C1CCC(F)(F)CC1)c1nonc1C1CC1 (single isomer, unassigned) [Compound 134]
> 1000	< 100	O=C(N[C@H](c1cn2nc(C[C@H]3C[C@@H](C(F)(F)F)CNC3=O)c(C3CCOC3)nc2n1)C1CCC(F)(F)CC1)c1nonc1C1CC1 (single isomer, unassigned) [Compound 135]
< 100	< 100	CCn1nccc1C(=O)N[C@H](c1cn2nc(C[C@H]3C[C@@H](C(F)(F)F)CNC3=O)c(C3CCOC3)nc2n1)[C@H]1CC[C@H](C)CC1 (single isomer, unassigned) [Compound 138]
< 100	< 100	CCn1nccc1C(=O)N[C@H](c1cn2nc(C[C@H]3C[C@@H](C(F)(F)F)CNC3=O)c(C3CCOC3)nc2n1)[C@H]1CC[C@H](C)CC1 (single isomer, unassigned) [Compound 139]
100 to 1000	< 100	O=C(N[C@H](c1cn2nc(C[C@H]3C[C@@H](C(F)(F)F)CNC3=O)c(C3CCOCC3)nc2n1)C1CCC(F)(F)CC1)c1conc1C1CC1(F)F (single isomer, unassigned) [Compound 144]
100 to 1000	< 100	O=C(N[C@H](c1cn2nc(C[C@H]3C[C@@H](C(F)(F)F)CNC3=O)c(C3CCOCC3)nc2n1)C1CCC(F)(F)CC1)c1conc1C1CC1(F)F (single isomer, unassigned) [Compound 145]
